Assay results published in article PMC7265341, “Quantifying CDK inhibitor selectivity in live cells” (Nature Communications, 2020).
Read-outs that look alike come from different tables or passages of the source.

Columns and labels:
CDK11A/Cyclin L2 = target: T1, CDK11A/Cyclin L2 (Homo sapiens, UniProt Q9UQ88); assay: NanoBRET live-cell target engagement, CDK11A-NanoLuc/Cyclin L2 in HEK-293; format: binding; details: CDK11a/L2, read-out: Inhibition at 10µM (%)
T1 sequence (Q9UQ88 1-783): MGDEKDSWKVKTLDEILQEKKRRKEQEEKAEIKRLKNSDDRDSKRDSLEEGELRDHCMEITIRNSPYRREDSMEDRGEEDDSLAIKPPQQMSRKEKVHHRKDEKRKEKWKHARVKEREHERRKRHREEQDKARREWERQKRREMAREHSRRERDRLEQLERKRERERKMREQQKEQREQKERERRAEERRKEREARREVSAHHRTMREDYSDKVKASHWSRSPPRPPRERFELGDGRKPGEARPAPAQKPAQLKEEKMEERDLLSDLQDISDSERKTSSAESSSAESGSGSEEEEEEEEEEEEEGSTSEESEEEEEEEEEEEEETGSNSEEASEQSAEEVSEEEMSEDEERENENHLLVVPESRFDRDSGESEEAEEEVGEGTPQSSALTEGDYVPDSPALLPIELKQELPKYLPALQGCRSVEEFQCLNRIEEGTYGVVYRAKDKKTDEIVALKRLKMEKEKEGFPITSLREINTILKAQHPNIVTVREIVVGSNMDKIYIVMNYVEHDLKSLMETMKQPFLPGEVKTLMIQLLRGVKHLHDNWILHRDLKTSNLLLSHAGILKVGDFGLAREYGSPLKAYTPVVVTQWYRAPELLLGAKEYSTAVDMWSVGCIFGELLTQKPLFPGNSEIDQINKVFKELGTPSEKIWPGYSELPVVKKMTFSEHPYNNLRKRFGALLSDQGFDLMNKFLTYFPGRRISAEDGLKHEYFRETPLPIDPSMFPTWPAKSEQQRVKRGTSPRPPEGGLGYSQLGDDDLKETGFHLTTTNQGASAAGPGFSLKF

CDK2/Cyclin E1 = CDK2/Cyclin E1 (Homo sapiens, UniProt P24941); assay: NanoBRET live-cell target engagement, CDK2-NanoLuc/Cyclin E1 in HEK-293; format: binding; details: CDK2/E1, read-out: Inhibition at 10µM (%)
CDK17/Cyclin Y = CDK17/Cyclin Y (Homo sapiens, UniProt Q00537); assay: NanoBRET live-cell target engagement, CDK17-NanoLuc/Cyclin Y in HEK-293; format: binding; details: CDK17/Y; for IC50: read-out: IC50; for inhibition at 10 µM: read-out: Inhibition at 10µM (%)
Sequence of CDK17/Cyclin Y (Q00537 whole entry): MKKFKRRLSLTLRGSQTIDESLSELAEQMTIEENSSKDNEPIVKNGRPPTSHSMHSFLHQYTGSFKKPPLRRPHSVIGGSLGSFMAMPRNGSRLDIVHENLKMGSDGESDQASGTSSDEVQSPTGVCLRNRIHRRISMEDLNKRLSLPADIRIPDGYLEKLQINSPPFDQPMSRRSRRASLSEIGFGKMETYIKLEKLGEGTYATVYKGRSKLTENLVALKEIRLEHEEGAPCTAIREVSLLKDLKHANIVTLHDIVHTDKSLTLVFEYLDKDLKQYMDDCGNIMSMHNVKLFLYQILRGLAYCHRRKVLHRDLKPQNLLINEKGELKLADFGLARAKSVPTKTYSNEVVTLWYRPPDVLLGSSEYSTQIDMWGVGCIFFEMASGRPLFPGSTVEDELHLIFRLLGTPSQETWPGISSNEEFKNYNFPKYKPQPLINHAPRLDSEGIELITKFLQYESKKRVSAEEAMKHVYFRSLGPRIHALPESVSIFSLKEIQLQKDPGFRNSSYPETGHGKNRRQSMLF
Sequence of CDK17/Cyclin Y (Q8ND76 whole entry partner): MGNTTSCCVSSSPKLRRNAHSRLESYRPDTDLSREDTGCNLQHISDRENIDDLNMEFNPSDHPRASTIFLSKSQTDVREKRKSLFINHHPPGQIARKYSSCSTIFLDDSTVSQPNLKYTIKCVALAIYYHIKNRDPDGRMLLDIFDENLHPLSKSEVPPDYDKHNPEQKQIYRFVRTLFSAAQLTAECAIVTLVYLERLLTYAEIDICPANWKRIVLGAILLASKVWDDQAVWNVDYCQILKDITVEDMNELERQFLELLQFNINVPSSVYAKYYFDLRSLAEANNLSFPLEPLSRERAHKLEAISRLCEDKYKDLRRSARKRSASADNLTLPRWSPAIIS

CDK15/Cyclin Y = CDK15/Cyclin Y (Homo sapiens, UniProt Q96Q40); assay: NanoBRET live-cell target engagement, NanoLuc-CDK15/Cyclin Y in HEK-293; format: binding; details: CDK15/Y, read-out: Inhibition at 10µM (%)
CDK1/Cyclin E1 = CDK1/Cyclin E1 (Homo sapiens, UniProt P06493); assay: NanoBRET live-cell target engagement, CDK1-NanoLuc/Cyclin E1 in HEK-293; format: binding; details: CDK1/E1, read-out: Inhibition at 10µM (%)
Sequence of CDK1/Cyclin E1 (P06493 whole entry): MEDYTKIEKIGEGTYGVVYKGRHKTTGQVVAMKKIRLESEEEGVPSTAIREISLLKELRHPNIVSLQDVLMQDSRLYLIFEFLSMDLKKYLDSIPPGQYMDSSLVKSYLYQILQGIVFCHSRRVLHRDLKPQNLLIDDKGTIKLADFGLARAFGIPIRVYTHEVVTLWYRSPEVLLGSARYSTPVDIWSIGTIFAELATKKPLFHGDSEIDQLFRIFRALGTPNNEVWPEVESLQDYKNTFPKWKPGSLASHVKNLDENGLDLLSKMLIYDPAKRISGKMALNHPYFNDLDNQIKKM
Sequence of CDK1/Cyclin E1 (P24864 whole entry partner): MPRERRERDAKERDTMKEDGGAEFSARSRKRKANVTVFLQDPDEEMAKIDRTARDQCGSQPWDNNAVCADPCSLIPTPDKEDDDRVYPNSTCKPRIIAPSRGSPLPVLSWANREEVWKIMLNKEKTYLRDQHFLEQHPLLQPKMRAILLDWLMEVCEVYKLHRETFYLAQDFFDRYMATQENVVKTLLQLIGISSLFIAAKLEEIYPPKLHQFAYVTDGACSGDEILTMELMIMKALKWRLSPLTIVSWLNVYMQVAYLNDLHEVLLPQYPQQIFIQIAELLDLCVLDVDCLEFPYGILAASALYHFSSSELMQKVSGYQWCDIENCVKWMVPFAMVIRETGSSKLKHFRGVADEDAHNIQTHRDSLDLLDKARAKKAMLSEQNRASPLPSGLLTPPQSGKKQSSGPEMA

CDK6/Cyclin D1 = CDK6/Cyclin D1 (Homo sapiens, UniProt Q00534); assay: NanoBRET live-cell target engagement, NanoLuc-CDK6/Cyclin D1 in HEK-293; format: binding; details: CDK6/D1; for IC50: read-out: IC50; for inhibition at 10 µM: read-out: Inhibition at 10µM (%)
CDK11B/Cyclin L2 = CDK11B/Cyclin L2 (Homo sapiens, UniProt P21127); assay: NanoBRET live-cell target engagement, CDK11B-NanoLuc/Cyclin L2 in HEK-293; format: binding; details: CDK11b/L2, read-out: Inhibition at 10µM (%)
Sequence of CDK11B/Cyclin L2 (P21127 1-782 isoform P21127-2): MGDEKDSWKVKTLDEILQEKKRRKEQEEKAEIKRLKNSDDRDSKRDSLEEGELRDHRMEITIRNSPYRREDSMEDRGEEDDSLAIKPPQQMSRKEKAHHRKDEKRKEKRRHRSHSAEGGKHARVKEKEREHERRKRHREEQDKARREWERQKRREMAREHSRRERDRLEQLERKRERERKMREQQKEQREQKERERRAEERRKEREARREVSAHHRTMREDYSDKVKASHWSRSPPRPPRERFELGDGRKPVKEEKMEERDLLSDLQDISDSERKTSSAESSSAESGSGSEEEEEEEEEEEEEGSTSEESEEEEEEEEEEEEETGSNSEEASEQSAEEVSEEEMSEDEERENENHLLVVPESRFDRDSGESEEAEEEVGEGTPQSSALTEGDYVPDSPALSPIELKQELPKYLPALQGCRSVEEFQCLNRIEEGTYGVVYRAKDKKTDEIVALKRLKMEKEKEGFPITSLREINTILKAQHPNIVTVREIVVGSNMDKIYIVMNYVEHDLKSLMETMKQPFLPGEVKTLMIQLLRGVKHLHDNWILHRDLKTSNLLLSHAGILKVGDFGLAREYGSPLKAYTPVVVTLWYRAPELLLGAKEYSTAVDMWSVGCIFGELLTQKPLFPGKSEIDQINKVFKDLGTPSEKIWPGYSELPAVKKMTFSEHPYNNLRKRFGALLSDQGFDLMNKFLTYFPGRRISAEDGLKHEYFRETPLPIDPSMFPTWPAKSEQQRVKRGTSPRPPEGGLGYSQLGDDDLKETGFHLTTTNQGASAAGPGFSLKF

CDK19/Cyclin C = CDK19/Cyclin C (Homo sapiens, UniProt Q9BWU1); assay: NanoBRET live-cell target engagement, NanoLuc-CDK19/Cyclin C in HEK-293; details: read-out: Inhibition at 10µM (%), CDK19/C
Sequence of CDK19/Cyclin C (Q9BWU1 whole entry): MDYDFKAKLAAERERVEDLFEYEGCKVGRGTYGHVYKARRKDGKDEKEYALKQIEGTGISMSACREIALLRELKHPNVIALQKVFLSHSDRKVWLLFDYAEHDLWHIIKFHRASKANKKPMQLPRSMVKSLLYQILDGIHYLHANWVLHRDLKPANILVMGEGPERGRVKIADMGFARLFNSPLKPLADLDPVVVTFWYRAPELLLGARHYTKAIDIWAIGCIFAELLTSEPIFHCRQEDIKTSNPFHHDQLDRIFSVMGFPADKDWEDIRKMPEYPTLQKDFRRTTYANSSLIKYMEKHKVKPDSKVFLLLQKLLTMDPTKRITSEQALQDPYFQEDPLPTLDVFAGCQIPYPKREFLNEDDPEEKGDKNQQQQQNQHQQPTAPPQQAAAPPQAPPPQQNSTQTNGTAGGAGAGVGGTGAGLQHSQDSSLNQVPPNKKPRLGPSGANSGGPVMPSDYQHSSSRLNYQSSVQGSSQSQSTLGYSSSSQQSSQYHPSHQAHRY
Sequence of CDK19/Cyclin C (P24863 whole entry partner): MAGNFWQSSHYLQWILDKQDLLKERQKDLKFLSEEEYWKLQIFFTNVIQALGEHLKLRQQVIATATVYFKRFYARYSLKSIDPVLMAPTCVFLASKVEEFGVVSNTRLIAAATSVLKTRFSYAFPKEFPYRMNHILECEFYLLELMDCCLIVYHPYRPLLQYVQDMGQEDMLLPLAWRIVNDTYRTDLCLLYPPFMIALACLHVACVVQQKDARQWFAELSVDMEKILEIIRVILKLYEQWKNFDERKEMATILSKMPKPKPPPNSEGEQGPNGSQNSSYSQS

CDK16/Cyclin Y = CDK16/Cyclin Y (Homo sapiens, UniProt Q00536); assay: NanoBRET live-cell target engagement, CDK16-NanoLuc/Cyclin Y in HEK-293; format: binding; details: CDK16/Y; for IC50: read-out: IC50; for inhibition at 10 µM: read-out: Inhibition at 10µM (%)
CDK18/Cyclin Y = CDK18/Cyclin Y (Homo sapiens, UniProt Q07002); assay: NanoBRET live-cell target engagement, CDK18-NanoLuc/Cyclin Y in HEK-293; format: binding; details: CDK18/Y; for IC50: read-out: IC50; for inhibition at 10 µM: read-out: Inhibition at 10µM (%)
CDK5/CDK5R1 = CDK5/CDK5R1 (Homo sapiens, UniProt Q00535); assay: NanoBRET live-cell target engagement, CDK5-NanoLuc/CDK5R1 in HEK-293; format: binding; details: CDK5/CDK5R1, read-out: Inhibition at 10µM (%)
CDK9/Cyclin K = CDK9/Cyclin K (Homo sapiens, UniProt P50750); assay: NanoBRET live-cell target engagement, NanoLuc-CDK9/Cyclin K in HEK-293; format: binding; details: CDK9/K, read-out: Inhibition at 10µM (%)
Sequence of CDK9/Cyclin K (P50750 whole entry): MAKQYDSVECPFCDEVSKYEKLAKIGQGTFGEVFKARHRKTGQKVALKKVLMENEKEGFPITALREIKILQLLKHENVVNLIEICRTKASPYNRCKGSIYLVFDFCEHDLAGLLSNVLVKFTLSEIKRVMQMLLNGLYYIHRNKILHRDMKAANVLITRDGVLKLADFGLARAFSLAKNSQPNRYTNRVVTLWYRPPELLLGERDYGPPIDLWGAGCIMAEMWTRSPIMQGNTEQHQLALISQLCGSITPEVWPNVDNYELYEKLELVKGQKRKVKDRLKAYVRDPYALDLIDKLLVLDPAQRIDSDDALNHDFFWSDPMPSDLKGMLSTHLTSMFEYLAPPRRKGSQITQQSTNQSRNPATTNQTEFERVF
Sequence of CDK9/Cyclin K (O75909 whole entry partner): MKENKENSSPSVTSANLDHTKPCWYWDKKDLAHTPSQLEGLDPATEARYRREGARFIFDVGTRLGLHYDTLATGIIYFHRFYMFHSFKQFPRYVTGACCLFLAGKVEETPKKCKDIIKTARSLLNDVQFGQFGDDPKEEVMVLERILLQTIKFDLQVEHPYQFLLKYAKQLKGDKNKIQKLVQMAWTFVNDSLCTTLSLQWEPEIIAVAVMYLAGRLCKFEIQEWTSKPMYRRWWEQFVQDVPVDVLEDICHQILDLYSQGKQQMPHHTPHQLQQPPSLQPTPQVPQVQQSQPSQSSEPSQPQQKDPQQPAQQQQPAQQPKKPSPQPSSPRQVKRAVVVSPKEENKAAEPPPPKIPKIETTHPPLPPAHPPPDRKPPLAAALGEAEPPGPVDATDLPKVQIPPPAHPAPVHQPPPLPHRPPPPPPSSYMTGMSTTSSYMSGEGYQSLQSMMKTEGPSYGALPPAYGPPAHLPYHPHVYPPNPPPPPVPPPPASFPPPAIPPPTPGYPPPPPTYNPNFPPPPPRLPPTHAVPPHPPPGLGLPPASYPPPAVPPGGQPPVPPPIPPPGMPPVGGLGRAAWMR

CDK3/Cyclin E1 = CDK3/Cyclin E1 (Homo sapiens, UniProt Q00526); assay: NanoBRET live-cell target engagement, CDK3-NanoLuc/Cyclin E1 in HEK-293; format: binding; details: CDK3/E1, read-out: Inhibition at 10µM (%)
Sequence of CDK3/Cyclin E1 (Q00526 whole entry): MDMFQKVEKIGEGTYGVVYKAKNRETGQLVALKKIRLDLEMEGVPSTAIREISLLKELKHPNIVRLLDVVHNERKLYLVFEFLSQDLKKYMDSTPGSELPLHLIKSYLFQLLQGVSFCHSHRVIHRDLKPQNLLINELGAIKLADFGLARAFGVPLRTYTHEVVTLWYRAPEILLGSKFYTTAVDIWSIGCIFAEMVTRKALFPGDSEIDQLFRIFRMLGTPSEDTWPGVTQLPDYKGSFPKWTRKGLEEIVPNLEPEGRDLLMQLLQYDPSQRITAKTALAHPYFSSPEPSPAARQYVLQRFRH
Sequence of CDK3/Cyclin E1 (P24864 whole entry partner): as the sequence (P24864 whole entry partner) above

CDK7 = CDK7 (Homo sapiens, UniProt P50613); assay: NanoBRET live-cell target engagement, NanoLuc-CDK7 in HEK-293; format: binding; details: CDK7; for IC50: read-out: IC50; for inhibition at 10 µM: read-out: Inhibition at 10µM (%)
Sequence of CDK7 (P50613 whole entry): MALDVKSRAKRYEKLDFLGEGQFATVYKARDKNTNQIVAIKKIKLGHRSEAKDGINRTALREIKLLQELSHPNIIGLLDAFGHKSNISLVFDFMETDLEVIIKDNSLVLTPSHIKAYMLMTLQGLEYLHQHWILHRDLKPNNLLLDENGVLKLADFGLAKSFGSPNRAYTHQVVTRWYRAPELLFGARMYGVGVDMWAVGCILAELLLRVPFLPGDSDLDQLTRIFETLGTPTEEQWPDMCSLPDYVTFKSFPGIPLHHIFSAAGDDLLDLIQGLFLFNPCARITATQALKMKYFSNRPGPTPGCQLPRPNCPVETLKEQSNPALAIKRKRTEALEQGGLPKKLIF

CDK14/Cyclin Y = CDK14/Cyclin Y (Homo sapiens, UniProt O94921); assay: NanoBRET live-cell target engagement, CDK14-NanoLuc/Cyclin Y in HEK-293; format: binding; details: CDK14/Y; for IC50: read-out: IC50; for inhibition at 10 µM: read-out: Inhibition at 10µM (%)
CDK4/Cyclin D1 = CDK4/Cyclin D1 (Homo sapiens, UniProt P11802); assay: NanoBRET live-cell target engagement, NanoLuc-CDK4/Cyclin D1 in HEK-293; format: binding; details: CDK4/D1; for IC50: read-out: IC50; for inhibition at 10 µM: read-out: Inhibition at 10µM (%)
CDK10/Cyclin L2 = CDK10/Cyclin L2 (Homo sapiens, UniProt Q15131); assay: NanoBRET live-cell target engagement, CDK10-NanoLuc/Cyclin L2 in HEK-293; details: read-out: Inhibition at 10µM (%), CDK10/L2
CDK8/Cyclin C = CDK8/Cyclin C (Homo sapiens, UniProt P49336); assay: NanoBRET live-cell target engagement, NanoLuc-CDK8/Cyclin C in HEK-293; format: binding; details: CDK8/C, read-out: Inhibition at 10µM (%)
CDK20/Cyclin H = CDK20/Cyclin H (Homo sapiens, UniProt Q8IZL9); assay: NanoBRET live-cell target engagement, NanoLuc-CDK20/Cyclin H in HEK-293; format: binding; details: CDK20/H, read-out: Inhibition at 10µM (%)

CN1CCN(c2ccc(Nc3ncc4cc(C#N)c(=O)n(C5CCCC5)c4n3)cc2)CC1 [ON123300]
inhibition at 10 µM (CDK11A/Cyclin L2; average): 12.6%
inhibition at 10 µM (CDK11A/Cyclin L2; experiment 1): 15.7%
inhibition at 10 µM (CDK11A/Cyclin L2; experiment 2): 9.5%
inhibition at 10 µM (CDK2/Cyclin E1; average): 12.6%
inhibition at 10 µM (CDK2/Cyclin E1; experiment 1): 14.4%
inhibition at 10 µM (CDK2/Cyclin E1; experiment 2): 10.7%
IC50 (CDK17/Cyclin Y; average (± SEM where n=3)): 40 ± 4 nM
inhibition at 10 µM (CDK17/Cyclin Y; average): 75.5%
IC50 (CDK17/Cyclin Y; experiment 1): 32 nM
inhibition at 10 µM (CDK17/Cyclin Y; experiment 1): 72.1%
IC50 (CDK17/Cyclin Y; experiment 2): 43 nM
inhibition at 10 µM (CDK17/Cyclin Y; experiment 2): 78.9%
IC50 (CDK17/Cyclin Y; experiment 3): 44 nM
inhibition at 10 µM (CDK15/Cyclin Y; average): 29.2%
inhibition at 10 µM (CDK15/Cyclin Y; experiment 1): 36%
inhibition at 10 µM (CDK15/Cyclin Y; experiment 2): 22.5%
inhibition at 10 µM (CDK1/Cyclin E1; average): 18.6%
inhibition at 10 µM (CDK1/Cyclin E1; experiment 1): 20.1%
inhibition at 10 µM (CDK1/Cyclin E1; experiment 2): 17.1%
IC50 (CDK6/Cyclin D1; average (± SEM where n=3)): 4 ± 1 nM
inhibition at 10 µM (CDK6/Cyclin D1; average): 97.7%
IC50 (CDK6/Cyclin D1; experiment 1): 4.8 nM
inhibition at 10 µM (CDK6/Cyclin D1; experiment 1): 96.9%
IC50 (CDK6/Cyclin D1; experiment 2): 3.4 nM
inhibition at 10 µM (CDK6/Cyclin D1; experiment 2): 98.5%
IC50 (CDK6/Cyclin D1; experiment 3): 3 nM
inhibition at 10 µM (CDK11B/Cyclin L2; average): 36.8%
inhibition at 10 µM (CDK11B/Cyclin L2; experiment 1): 11.7%
inhibition at 10 µM (CDK11B/Cyclin L2; experiment 2): 61.9%
inhibition at 10 µM (CDK19/Cyclin C; average): -0.3%
inhibition at 10 µM (CDK19/Cyclin C; experiment 1): 6.6%
inhibition at 10 µM (CDK19/Cyclin C; experiment 2): -7.2%
IC50 (CDK16/Cyclin Y; average (± SEM where n=3)): 39 ± 8 nM
IC50 (CDK16/Cyclin Y; experiment 1): 23 nM
inhibition at 10 µM (CDK16/Cyclin Y; experiment 1): 70.3%
IC50 (CDK16/Cyclin Y; experiment 2): 47 nM
inhibition at 10 µM (CDK16/Cyclin Y; experiment 2): 78.8%
IC50 (CDK16/Cyclin Y; experiment 3): 48 nM
IC50 (CDK18/Cyclin Y; average (± SEM where n=3)): 240 ± 50 nM
inhibition at 10 µM (CDK18/Cyclin Y; average): 38.8%
IC50 (CDK18/Cyclin Y; experiment 1): 283 nM
inhibition at 10 µM (CDK18/Cyclin Y; experiment 1): 27.5%
IC50 (CDK18/Cyclin Y; experiment 2): 300 nM
inhibition at 10 µM (CDK18/Cyclin Y; experiment 2): 50%
IC50 (CDK18/Cyclin Y; experiment 3): 150 nM
inhibition at 10 µM (CDK5/CDK5R1; average): 4.3%
inhibition at 10 µM (CDK5/CDK5R1; experiment 1): 8%
inhibition at 10 µM (CDK5/CDK5R1; experiment 2): 0.554%
inhibition at 10 µM (CDK9/Cyclin K; average): 34.2%
inhibition at 10 µM (CDK9/Cyclin K; experiment 1): 32%
inhibition at 10 µM (CDK9/Cyclin K; experiment 2): 36.4%
inhibition at 10 µM (CDK3/Cyclin E1; average): 24.7%
inhibition at 10 µM (CDK3/Cyclin E1; experiment 1): 10.5%
inhibition at 10 µM (CDK3/Cyclin E1; experiment 2): 38.9%
IC50 (CDK7; average (± SEM where n=3)): 143 ± 4 nM
inhibition at 10 µM (CDK7; average): 28.4%
IC50 (CDK7; experiment 1): 140 nM
inhibition at 10 µM (CDK7; experiment 1): 28.2%
IC50 (CDK7; experiment 2): 150 nM
inhibition at 10 µM (CDK7; experiment 2): 28.5%
IC50 (CDK7; experiment 3): 139 nM
IC50 (CDK14/Cyclin Y; average (± SEM where n=3)): 120 ± 60 nM
inhibition at 10 µM (CDK14/Cyclin Y; average): 45.4%
IC50 (CDK14/Cyclin Y; experiment 1): 34 nM
inhibition at 10 µM (CDK14/Cyclin Y; experiment 1): 56.3%
IC50 (CDK14/Cyclin Y; experiment 2): 220 nM
inhibition at 10 µM (CDK14/Cyclin Y; experiment 2): 34.4%
IC50 (CDK14/Cyclin Y; experiment 3): 99 nM
IC50 (CDK4/Cyclin D1; average (± SEM where n=3)): 9 ± 3 nM
inhibition at 10 µM (CDK4/Cyclin D1; average): 95.1%
IC50 (CDK4/Cyclin D1; experiment 1): 6.9 nM
inhibition at 10 µM (CDK4/Cyclin D1; experiment 1): 95.8%
IC50 (CDK4/Cyclin D1; experiment 2): 5 nM
inhibition at 10 µM (CDK4/Cyclin D1; experiment 2): 94.3%
IC50 (CDK4/Cyclin D1; experiment 3): 15 nM
inhibition at 10 µM (CDK10/Cyclin L2; average): 4.6%
inhibition at 10 µM (CDK10/Cyclin L2; experiment 1): 8.8%
inhibition at 10 µM (CDK10/Cyclin L2; experiment 2): 0.3%
inhibition at 10 µM (CDK8/Cyclin C; average): 8.5%
inhibition at 10 µM (CDK8/Cyclin C; experiment 1): 6.2%
inhibition at 10 µM (CDK8/Cyclin C; experiment 2): 10.8%
inhibition at 10 µM (CDK20/Cyclin H; experiment 1): 23.1%
inhibition at 10 µM (CDK20/Cyclin H; experiment 2): 26.8%
